Reference: PubChem BioAssay (NCI)
Several values for one entry are separate records, joined by “and”; a condition that tells them apart may be missing. Equal entries are not always repeated.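 Where inhibition never reached the appropriate level, the endpoint shown equals the highest concentration tested. Otherwise, values were interpolated linearly from a five-concentration, 48-hour dose response in 96-well plates. Here, GI50 denotes the concentration required for 50% inhibition of growth. At the TGI there is no net growth.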

What was measured:
Assay in all cases: growth of human tumour cells (NCI), 48 h
[1] = system: DU-145 prostate
[2] = system: HS 578T breast
[3] = system: RXF-631 renal
[4] = system: DMS 114 small cell lung
[5] = system: DLD-1 colon
[6] = system: LXFL 529 NSCLC
[7] = system: HOP-18 NSCLC
[8] = system: MDA-N
[9] = system: XF 498 CNS

Structure (SMILES) | GI50 [1] | TGI [1] | GI50 [2] | TGI [2] | TGI [4] [µM] | TGI [6] [µM] | also measured
Cc1cc(S(=O)(=O)NC#N)c(S/C(=N\Nc2ccc([N+](=O)[O-])cc2)c2ccc(Cl)cc2)cc1Cl | 17.6 µM | > 100 µM | 17.2 µM | 58 µM | – | – | –
Cc1ccc(-c2csc(NC(=O)CN3CCN(c4cc5c(cc4F)c(=O)c(C(=O)O)cn5C4CC4)CC3)n2)cc1 | 0.513 µM | > 100 µM | 0.749 µM | 31.7 µM | – | – | –
Cc1cc(Cl)ccc1Nc1nc(C(F)(F)F)ccc1C(=O)N/N=C/c1ccc([N+](=O)[O-])cc1 | 1.78 µM | – | 1.14 µM | 2.91 µM | – | – | –
Cc1cc2c(cc1Cl)SC1=NN(C)C(N(C)C)N1S2(=O)=O (stereo not given) | > 100 µM | > 100 µM | > 100 µM | > 100 µM | – | – | –
Cc1ccc(-c2cc(-c3ccccc3)c(C#N)c(=O)n2C2OC(CO)C(O)C(O)C2O)cc1 (stereo not given) | – | – | – | – | > 100 | > 100 | TGI [3]: > 100 µM; TGI [5]: > 100 µM; TGI [7]: > 100 µM
Cc1ccc(-c2cc(-c3ccco3)c(C#N)c(=O)n2C2OC(OC(=O)c3ccccc3)C(OC(=O)c3ccccc3)C2OC(=O)c2ccccc2)cc1 (stereo not given) | – | – | – | – | > 100 | > 100 | TGI [3]: > 100 µM; TGI [5]: > 100 µM; TGI [7]: > 100 µM
CCOc1cc(/C=N\Nc2nnc(C)n2N)c(C)cc1N(CCCl)CCCl | 2.68 µM | > 100 µM | 1.52 µM | 13.1 µM | – | – | –
CCn1c(-c2nonc2N)nc2c(C#CC(C)(C)O)nc(OCCNC)cc21 | 8.53 µM | > 25 µM | 6.03 µM | > 25 µM | – | – | –
CC[O-].CC[O-].O=S(=O)([O-])c1ccc([O-])c2ncccc12.O=S(=O)([O-])c1ccc([O-])c2ncccc12.[Ti+4] | – | – | – | – | > 100 | > 100 | GI50 [4]: 74.7 µM; GI50 [5]: 91.1 µM; TGI [5]: > 100 µM; GI50 [6]: 39.6 µM; GI50 [7]: > 100 µM; TGI [7]: > 100 µM
COc1ccc2[nH]c(O)c(C(=Nc3ccc(N(C)C(=O)CN4CCN(C)CC4)cc3)c3ccccc3)c2c1 | 2.66 µM | 11.8 µM | 1.09 µM | 4.67 µM | – | – | –
COC(=O)c1nc(Cl)nc(Cl)c1Cl | – | > 100 µM | – | 85 µM | – | – | TGI [8]: 76.8 µM
C=CC(=O)Nc1cc2c(Nc3ccc(F)c(Cl)c3)ncnc2cc1OCCCN1CCOCC1 | 0.159 µM and 0.741 µM | 12.2 µM and > 10 µM | 2.05 µM and 2.21 µM | 7.21 µM and > 10 µM | – | – | –
COc1ccc(Cn2c3c(cc(OS(=O)(=O)C(F)(F)F)c2=O)Cc2ccccc2-3)cc1 | 17.1 µM | 50 µM and > 100 µM | > 100 µM | > 100 µM | – | – | GI50 [8]: 7.55 µM; TGI [8]: 50 µM and > 100 µM
Cc1ccc2nc(-c3ccc(N(C)C)c(Br)c3)cn2c1 | > 100 µM | > 100 µM | 25.3 µM | > 100 µM | – | – | –
CCC[n+]1cc2cc(OC)c(OC)cc2c2c1-c1cc3c(cc1C2)OCO3 | 7.82 µM | 38.6 µM | 1.63 µM | 13.6 µM | – | – | GI50 [8]: 2.83 µM; TGI [8]: 11 µM
CN1C(=O)N(C)C2C1NN=c1s/c(=C\c3ccc(F)cc3)c(=O)n12 (stereo not given) | 3.22 µM | > 100 µM | 2.08 µM | 7.31 µM | – | – | –
Cc1[nH]nc(C(=O)n2nc(N)c3ccccc32)c1[N+](=O)[O-] | > 100 µM | > 100 µM | > 100 µM | > 100 µM | – | – | –

Structure (SMILES) | GI50 [1] | TGI [1] | GI50 [2] | TGI [2] | TGI [4] [µM] | TGI [6] [µM] | also measured
COC(=O)[C@]12CCC(C)[C@H](C)[C@H]1C1=CCC3[C@@]4(C)CC[C@H](OC(C)=O)C(C)(C)C4CC[C@@]3(C)C1(C)C(O)C2 (stereo not given in full) | – | – | – | – | > 100 | > 100 | TGI [9]: > 100 µM; TGI [5]: > 100 µM; TGI [7]: > 100 µM
NC(N)=NCCC1OC(=O)C2=C1c1c(O)ccc3nccc(c13)O2 (stereo not given) | > 100 µM | > 100 µM | > 100 µM | > 100 µM | – | – | GI50 [8]: > 100 µM; TGI [8]: > 100 µM
OC1(c2ccccc2)OC(C#Cc2ccccc2)(c2ccccc2)c2ccccc21 (stereo not given) | – | – | – | – | 9.01 | 19.2 | TGI [3]: 13.3 µM; TGI [9]: 19.8 µM; TGI [5]: 11.2 µM
Cc1cc2c(cc1C)N(C(=O)CCl)CCN2C(=O)CCl | 1.54 µM | 2.9 µM | 1.75 µM | 4.96 µM | – | – | –
Cc1cc(C)c(C(=O)c2no[n+]([O-])c2C(=O)c2c(C)cc(C)c(Br)c2C)c(C)c1Br | – | – | – | – | 23.4 | 23.7 | TGI [3]: 35.7 µM; TGI [5]: 30.7 µM
O=c1cccc(C2CC(CO)C3CCCCN3C2)[nH]1 (stereo not given) | – | > 100 µM | – | > 100 µM | – | – | TGI [8]: > 100 µM
CCN(CC)C(=S)SC | – | > 100 µM | – | > 100 µM | – | – | TGI [8]: > 100 µM
COc1ccc(/C=C2\CCCC(C(NO)c3ccc(OC)cc3)C2=NO)cc1 (stereo not given) | – | – | – | – | > 100 | > 100 | TGI [3]: > 100 µM; TGI [5]: > 100 µM; TGI [7]: > 100 µM
COC1C2C=CC(C2)[C@H]1[N+](=O)[O-] (stereo not given in full) | – | – | – | – | > 100 | > 100 | TGI [3]: > 100 µM; TGI [5]: > 100 µM
CC1=C(C(=O)Nc2cccc(Cl)c2)C(c2ccccc2F)C(C(=O)Nc2cccc(Cl)c2)=C(C)N1 | – | – | – | – | 30.6 | 23.4 | TGI [3]: 22.6 µM; TGI [5]: 28.8 µM
COC(=O)C(CC(=O)Nc1ccc(C)cc1)C(=O)C(=O)Nc1ccccc1C(C)C (stereo not given) | – | – | – | – | > 100 | > 100 | TGI [9]: > 100 µM; TGI [5]: > 100 µM; TGI [7]: > 100 µM
Cc1sc2nc3c4ccccc4c(NCCCN(C)C)nn3c(=O)c2c1C | 4.4 µM | 14.5 µM | 3.15 µM | 17.5 µM | – | – | –
CC(=O)OCC(OC(C)=O)C(OC(C)=O)C(OC(C)=O)C(=O)CNn1c(-c2ccccc2Cl)nc2ccccc2c1=O (stereo not given) | – | – | – | – | > 100 | > 100 | –
O=C1C(c2ccccc2)=[N+]([O-])c2ccccc21 | – | 32.4 µM | – | 82.9 µM | – | – | TGI [8]: 12.8 µM
CCn1c2ccc(O)cc2c2c(C)c3c[n+](C)ccc3c(C)c21 | 5.25 µM | > 100 µM | 0.509 µM | 4.98 µM | – | – | –
NC(=O)c1cc2c3ccccc3ccn2c1-c1ccccc1 | 0.0719 µM | 2.54 µM | 0.0632 µM | 62.6 µM | – | – | –
COc1cc2ncnc(Nc3ccc(F)c(Cl)c3)c2cc1NC(=O)/C=C/CN1CCCCC1 | 0.365 µM and 0.401 µM | 11.4 µM and > 10 µM | 2.01 µM and 0.921 µM | 19.6 µM and 5.6 µM | – | – | –
